# Measurements from US12485106B2, “Methods of treating fibrotic liver diseases or conditions with indeglitazar” (PLEIOGENIX INC., priority 2023, dated 2025).
# Entries after “also recorded” stand apart in the source; their conditions may differ.
# Key:
# [1] = tested on: adipocyte differentiation; details: compared with full PPAR γ-agonists like pioglitazone; cited from earlier work
# [2] = tested on: mouse model of human alcoholic hepatitis; experiment: AH (NIAAA) mouse model, 8-week efficacy and safety study, alone and with prednisolone
# Excerpt: Mice were fed with the ethanol diet for four weeks, followed by 4 weeks of intervention (8 weeks total treatment).
# Livers were collected at the end-point from all mice and weighed. Liver samples were processed for histology to assess steatosis, inflammatory infiltrates and fibrosis. Briefly, liver tissue was fixed in 4% paraformaldehyde and paraffin-embedded, sectioned into 5 m thickness, and stained with hematoxylin-eosin (H&E), Oil-Red O staining, and Masson's trichrome staining.
# Safety testing: The safety of indeglitazar treatment was assessed by body weight measurements and full necropsy at endpoint. Mice were terminated from the experiment by isoflurane anesthesia and blood was collected by a cardiac bleed into EDTA-treated tubes, and then centrifuged to obtain plasma to conduct clinical chemistry including full liver and renal toxicology panel. A portion of the liver was analyzed for liver triglycerides and cholesterol levels by biochemical assays. […] Hearts were weighted and fixed in 10% NBF, paraffin embedded, and sectioned into 4-μm thick slices. H&E staining was used to investigate myocardial cell hypertrophy, and ventricle diameters by microscopy.
# [3] = Parallel Artificial Membrane Permeability-Blood Brain Barrier Assay (PMBBB-096); assay type: in vitro ADME; details: compared to promazine HCl (high permeability control)
# Protocol: Indeglitazar was evaluated using the Parallel Artificial Membrane Permeability-Blood Brain Barrier Assay (PMBBB-096; BioAssay Systems, Hayward, CA).
# PPARα = target: T1, PPARα (Homo sapiens, UniProt Q07869); details: cited from earlier work
# T1 sequence (Q07869 1-468): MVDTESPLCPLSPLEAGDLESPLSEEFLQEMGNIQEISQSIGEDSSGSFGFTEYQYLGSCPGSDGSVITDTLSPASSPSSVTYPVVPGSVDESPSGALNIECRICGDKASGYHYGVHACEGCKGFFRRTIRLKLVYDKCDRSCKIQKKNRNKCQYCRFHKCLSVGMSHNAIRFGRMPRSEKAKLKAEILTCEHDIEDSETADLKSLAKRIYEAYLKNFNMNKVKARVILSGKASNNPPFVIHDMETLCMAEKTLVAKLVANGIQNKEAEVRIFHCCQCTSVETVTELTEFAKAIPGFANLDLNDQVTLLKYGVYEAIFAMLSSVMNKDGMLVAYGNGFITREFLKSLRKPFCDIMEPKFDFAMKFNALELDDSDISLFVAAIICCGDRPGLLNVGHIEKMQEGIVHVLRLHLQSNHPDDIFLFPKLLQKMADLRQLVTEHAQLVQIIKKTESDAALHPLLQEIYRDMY
# [4] = tested on: mouse model of human alcoholic hepatitis; experiment: AH mouse model (chronic and binge ethanol feeding plus LPS), dose-response study; assay type: in vivo; details: for effect on body weight: 10, 30 and 50 mg/kg/day oral gavage, male and female mice
# Excerpt: Mouse model generation and treatment. The AH mouse model was generated as described in Shah et al. through chronic and binge ethanol feeding plus lipopolysaccharides (LPS) administration to provide a second hit to increase liver damage (Shah R et al., Oxid Med Cell Longev, (2018), 2018:9630175; Lamas-Paz A et al., World J Gastroenterol, (2018), 24:5063-75). This model is easy to implement and recapitulates the major features of human AH including marked ALT elevation, liver steatosis, and fibrosis (O'Beirne J., Dig Dis Sci., (2020), 65:920-1). A total of 60 mice, were used at a 50:50 male/female ratio to provide a comprehensive representation applicable in treating the general population. C57BL6 mice (6-8-week-old) were fed Lieber-DeCarli '82 rodent liquid diet (LDC) ad libitum for 5 days to acclimatize them to tube feeding. On day 6, mice were treated according to Table 1. Ethanol-fed groups were allowed free access to LDC diet containing 5% (vol/vol) ethanol for 11 days, and control groups were pair-fed with the LDC diet only. Indeglitazar was administered by oral gavage starting from day 6. On day 12, mice were given a single dose of 5 g/kg/bw of EtOH by oral gavage, and LPS (2 mg/kg/bw) by intraperitoneal injection (IP), pair-fed mice were fed isocaloric maltose dextrin and all mice were euthanized 6 h later.
# Analysis and tests: Mice were treated for 11 days; body weights were measured before and during administration. Plasma was analyzed for ALT, AST, and GGT. A full necropsy was performed at the end-point together with liver histology to assess steatosis, and inflammatory infiltrates. Briefly, liver tissue was fixed in 10% neutral buffered formalin and paraffin-embedded, sectioned into […] thickness, and stained with hematoxylin-eosin (H&E) and Oil-Red O staining for evaluation of histopathological changes. Stained liver slices were analyzed under a bright-field microscope using the histological scoring system for nonalcoholic fatty liver disease (Kleiner D L et al., Hepatology, (2005), 41:1313-21). The remaining liver tissue was analyzed for liver triglycerides and cholesterol levels by biochemical assays.
# The AH mouse model was generated as described in Shah et al. through chronic and binge ethanol (EtOH) feeding plus lipopolysaccharide (LPS) administration, to provide a second insult, to increase liver damage (Bertola A et al., Nat Protoc, (2013), 8:627-637; Takahashi Y et al., (2017), 313-339; Shah R et al., Oxid Med Cell Longev, (2018), 2018:9630175). This model recapitulates the major features of human AH, including marked ALT and AST elevation, liver steatosis, and fibrosis (Lucey M R et al., N Engl J Med., (2009), 360:2758-2769). For a dose-response study, a total of 60 (12 per group, 50:50 male/female ratio) C57BL6 mice (6-8-weeks old) were fed Lieber-DeCarli '82 rodent liquid diet (LDC) ad libitum, for 5 days, to acclimatize them to tube feeding. On days 6-11, mice were fed the LCD diet plus ethanol (5% vol:vol), and treated with indeglitazar (10 mg/kg, 30 mg/kg, or 50 mg/kg, oral gavage). On day 12, mice were given a single dose of EtOH (5 g/kg/body weight) by oral gavage and LPS (2 mg/kg/body weight) by ip injection; pair-fed mice were fed isocaloric maltose dextrin and all mice were euthanized 6 h later.
# [5] = indeglitazar 50 mg/kg, prednisolone 10 mg/kg, vs EtOH-treated vehicle control
# [6] = indeglitazar 50 mg/kg, prednisolone 10 mg/kg, vs ethanol-treated vehicle control
# [7] = indeglitazar 50 mg/kg, prednisolone 10 mg/kg, vs vehicle+EtOH
# [8] = indeglitazar 50 mg/kg/day, prednisolone 10 mg/kg/day, vs ethanol-treated vehicle control
# [9] = indeglitazar 50 mg/kg/day, prednisolone 10 mg/kg/day, vs ethanol-treated vehicle control, listed as indeglitazar
structure (smiles),measurement,setting,value
"COc1ccc(S(=O)(=O)n2cc(CCC(=O)O)c3cc(OC)ccc32)cc1 [Indeglitazar, 3-[5-methoxy-1-(4-methoxybenzenesulfonyl)-1H-indol-3-yl]-propanoic acid]",promoting adipocyte differentiation,[1],less potent
same,"liver histopathology: steatosis, hepatocellular karyomegaly, and ballooning","[2]; indeglitazar 50 mg/kg, prednisolone 10 mg/kg, data not shown",reduced significantly
same,effect on liver hydroxyproline,[2]; [5],significant decrease
same,effect on plasma adiponectin,[2]; [5],significant increase
same,effect on ALT,[2]; [6],significant decreases
same,effect on AST,[2]; [6],significant decreases
same,effect on plasma TGFβ,[2]; [6],significant decrease
same,effect on total bilirubin,[2]; [6],decrease; also recorded: significant decreases
same,decrease of liver TG,[2]; [7],28%
same,decrease of plasma TGFβ,[2]; [7],66%
same,decrease of plasma TNF-α,[2]; [7],50%
same,increase of adiponectin,[2]; [7],31%
same,decrease of hydroxyproline,"[2]; indeglitazar 50 mg/kg, prednisolone 10 mg/kg, vs vehicle+EtOH, P<0.0001",31%
same,effect on body weight,[2]; [8],no significant effect
same,effect on gamma-glutamyl transferase (GGT),[2]; [8],no significant effect
same,effect on heart weight (actual),[2]; [8],no significant effect
same,effect on heart weight divided by body weight×100,[2]; [8],no significant effect
same,effect on body weight,[2]; [9],"Neither EtOH (vs no EtOH vehicle control), indeglitazar, or prednisolone had a significant effect"
same,effect on heart weight (actual),[2]; [9],"Neither EtOH (vs no EtOH vehicle control), indeglitazar, or prednisolone had a significant effect"
same,effect on overall survival,"[2]; indeglitazar 50 mg/kg/day, prednisolone 10 mg/kg/day, vs ethanol-treated vehicle control, male and female mice",significant increase; also recorded: significantly increased
same,ability to cross the blood-brain barrier,[3],~15%
same,agonism against PPARα,PPARα,full agonism
same,effect on liver triglycerides,"[4]; 50 mg/kg, vs vehicle+EtOH",significantly reduced
same,reduction of ALT activity,"[4]; 50 mg/kg, vs vehicle+EtOH, P<0.0001",60%
same,reduction of AST,"[4]; 50 mg/kg, vs vehicle+EtOH, P<0.004",49%
same,reduction of liver TG,"[4]; 50 mg/kg, vs vehicle+EtOH, P<0.03",35%
same,effect on liver total cholesterol,"[4]; 10, 30, 50 mg/kg/day",no significant effect
same,effect on food intake,"[4]; 10, 30 and 50 mg/kg oral gavage, vs EtOH-treated vehicle control",Neither EtOH (vs no EtOH vehicle control) or indeglitazar had a significant effect
same,effect on body weight,[4]; vs ethanol-treated vehicle control,no significant effect
same,effect on body weight,"[4]; vs ethanol-treated vehicle control, listed as indeglitazar",Neither EtOH (vs no EtOH vehicle control) or indeglitazar had a significant effect; also recorded: no significant effect
same,effect on AST,"[4]; 10 and 50 mg/kg, vs ethanol-treated vehicle control",significant decreases
same,effect on ALT,"[4]; all three doses (10, 30, 50 mg/kg), vs ethanol-treated vehicle control",significant decrease
